{
  "source": "patent US12023388B2",
  "about": "“Detection and treatment of caries and microcavities with nanoparticles” (THE REGENTS OF THE UNIVERSITY OF MICHIGAN, priority 2015, dated 2024)",
  "assay": "Cavity diagnosis testing under dental curing lamp with ImageJ image analysis",
  "parameters": "species or system human",
  "excerpt": "Extracted teeth are obtained from School of Dentistry, University of Michigan (human subjects exempt) and stored in 1% sodium azide before use. The teeth are painted with an acid resistant varnish leaving a 1 mm 2 enamel window on the buccal surface of the crowns of the teeth. […] At the completion of the demineralization, the teeth are rinsed with distilled H2O before subjected to caries activity test. Residual varnish is removed by washing in acetone.\nTeeth are exposed to 20 microliters of sample for three minutes prior to rinsing in DI water. Rinsing is done initially for 10 seconds, and teeth are examined and photographed while illuminated with a standard dental curing lamp. Rinsing is continued for an additional 10 seconds, followed by imaging, and this is repeated for up to 5 minutes to determine “residence times” for each sample to optimize the exposure procedure.\nAfter a 3 minute exposure followed by 20 seconds of rinsing, imaging is performed under the dental curing lamp.\nDigital images are taken with a Nikon ABC camera and analyzed using ImageJ image analysis software. In particular, the “mean gray value” measurement tool is used to compare grayscale brightness between the carious lesion and the background tooth as a measurement of contrast. […]",
  "data": [
    {"substance": "FITC-dextran", "values": [
      {"measurement": "retention in carious lesions on rinsing in DI water", "setting": "controls: rinse times of more than 20 seconds, cationic StNP: up to five minutes", "value": "fully washed away"},
      {"measurement": "illumination of carious lesions (statistical analysis of percent intensity difference)", "setting": "versus untreated teeth / background tooth", "value": "did not illuminate carious lesions"}
    ]}
  ]
}
